{
  "source": "patent US20250346588A1",
  "about": "“IMIDAZOPYRIDINE AND OXAZOLOPYRIDINE DERIVATIVES AND ANALOGS THEREOF, METHODS OF PREPARATION THEREOF, METHODS OF HIF-1/2A PATHWAY INHIBITION, AND INDUCTION OF FERROPTOSIS” (KUDA THERAPEUTICS, INC., priority 2022, published 2025)",
  "key": {"IRP2 and GPX4": {"test_system": "IRP2 and GPX4", "experiment": "Western blots for cellular iron-sensing machinery (IRP2, GPX4)", "assay_type": "cell-based, human", "procedure": "Western blots were performed to determine the effects of the compounds on levels of HIF-2α and other relevant proteins, whereas qPCR was performed to determine the effects of compounds on transcript levels of HIF target genes. 786-0 or RCC10 cells were plated at 1×10E5 cells/well in 2 ml DMEM with 10% FBS/well in 6-well tissue culture plates. Cells were allowed to adhere overnight in a humidified incubator at 37° C. with 5% CO2, after which the appropriate concentrations of compounds in DMSO were added. DMSO concentrations were kept constant in all wells. After 24 h exposure to the compounds, cells were lysed and subjected to western blotting according to standard protocols. Antibodies for HIF-1α and HIF-2α and GAPDH were purchased from Cell Signaling Technology (Danvers, MA), whereas antibodies to IRP2 and pVHL were from Santa Cruz Biotechnology (Dallas, TX), and GPX4 antibody was from R&D Systems, Inc (Minneapolis, MN). Representative data in FIG. 2 show a dose-dependent effect of compounds in decreasing HIF-1/2α. Compounds also impact cellular iron sensing given by increased IRP2, which taken together indicate that cells sense decreased amounts of available iron, which triggers the iron starvation response initiated by IRP2 stabilization. Representative data shown in FIG. 3D show a dose dependent effect of the compounds on GPX4, which may indicate decreased resistance to ferroptosis. […] The data also show increased expression of ISCA2 with pVHL re-expression."}, "ISCA2": {"target": "T1, ISCA2 (Homo sapiens, UniProt Q86U28)", "T1 construct": "His6 (N); made in house; host or cells: E. coli Rosetta (DE3)", "T1 sequence (Q86U28 9-154)": "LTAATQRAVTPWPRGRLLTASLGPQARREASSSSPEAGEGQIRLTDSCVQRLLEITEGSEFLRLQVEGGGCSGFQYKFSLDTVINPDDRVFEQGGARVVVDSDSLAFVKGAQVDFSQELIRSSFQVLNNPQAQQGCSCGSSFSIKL", "experiment": "Thermal shift assay with recombinant ISCA2 (SYPRO Orange)", "assay_type": "binding", "procedure": "Thermal shift assays were performed by monitoring the change in protein melting temperature (Tm) in the absence or presence of test compounds, using the hydrophobic protein binding dye, SYPRO Orange (S6650, Thermo Fisher Scientific), measured using the LightCycler 480 (Roche Life Sciences, Indianapolis, IN) according to the manufacturer's protocol. Recombinant ISCA2 was produced by expressing amino acid residues 9-154 of ISCA2 (ISCA2 lacking its mitochondrial localization sequence) in the pET28 vector containing an N-terminal His6 tag in Rosetta (DE3) competent cells (Novagen, Millipore Sigma). ISCA2 production was induced by treating ISCA2 transformed log phase cells with 0.25 mM IPTG for 4 hours at 18° C. ISCA2 was purified using Ni^2+ affinity purification according to standard protocols and eluted in 50 mM Tris-C1 pH7.4, 150 mM NaCl, 5 mM DTT. Thermal shift assays were performed in 384-well plates using 1 μl of a 10× concentration of SYPRO Orange, 8 μl of ISCA2 (4 μg protein) and 1 μl of 1-2 mM stock of test compound per well. The LightCycler was used according to the following setup: LightCycler 480 Instrument Temperature Setup: First target of 20° C., with a Hold of 15 seconds; second target of 95° C., with Acquisition Mode of Continuous, and 10 acquisitions per degree c.; and third target of 20° C., with a Hold of 15 seconds. Tms were determined using Roche Protein Melting Analysis Software. Representative data are shown in FIGS. 6 and 7 using compound 1 and 26HCL at 200 and 100 µM final concentration respectively. […] These findings are supported by studies showing that re-expression of VHL (which increases ISCA2) and overexpression of ISCA2 itself, promotes the resistance of cells to the compounds (shown in FIG. 8)."}, "786-0 cells": {"test_system": "786-0 cells", "experiment": "TBARS assay of lipid peroxidation (MDA)", "assay_type": "cell-based, human", "conditions": "48h treatment", "procedure": "Malondialdehyde (MDA) is an end product of lipid peroxidation products and can be used to indicate lipid peroxidation, which is a hallmark of ferroptosis. MDA adducts were quantitated in cells and tumor tissue using the TBARS-TCA Method kit (Cat 700870, Cayman Chemicals, Ann Arbour Michigan) according to the manufacturer's protocol. Briefly, 786-0 cells were seeded at 1.75×10E6 cells in T75 cm^2 flasks, allowed to adhere overnight in a humidified incubator at 37° C. with 5% CO2, then treated with test compounds for 48 h, RSL3 (as positive control for 6h) or DMSO control (volume of DMSO kept constant for all flasks). Cells were detached by trypsinization, pelleted by centrifugation, washed in PBS twice, resuspended in 200 μL PBS, then sonicated for 3 minutes in a sonicating water bath. Representative data showing effects of 26HCL or 62TFA in comparison to RSL3, a classical ferroptosis inducer, is shown in FIG. 5. For MDA quantitation in tumor chunks, 20-50 mg of tumor tissue was homogenized in 200-500 μL of PBS, then sonicated for 5 minutes in a sonicating water bath. The cell or tumor lysates were subjected to the colorimetric detection methods described in manufacturer's protocol. MDA concentration of cells was determined in comparison to a standard curve of MDA stock solution provided by the manufacturer. Data was plotted using Prism GraphPad 9.3.1 Software. […]"}, "[1]": {"test_system": "HIF target genes VEGFA and POU5F1", "experiment": "qPCR of HIF target genes", "assay_type": "cell-based, human", "conditions": "FIG. 2C", "procedure": "For qPCR, cells seeded as described above were harvested for RNA isolation using the RNA Clean and Concentrator kit (Zymo Research, Irvine CA) according to the manufacturer's protocol. cDNA was prepared using the High Capacity […] kit from Thermo Fisher Scientific (Waltham, […]). qRT-PCR was performed using pre-designed Taqman Gene Expression assay primer/probes and master mix (Thermo Fisher Scientific) according to the manufacturer's protocol using the QuantStudio 3 Real-Time PCR System (ThermoFisher). Relative changes in gene expression normalized to the control gene, […] was determined using the ΔΔCt method."}},
  "data": [
    {"compound": "COc1ccc(-c2nnc(Nc3nc4c(OC)nccc4[nH]3)o2)cc1OC", "note": "[Compound 26HCL, N-(4-Methoxy-1H-imidazo[4,5-c]pyridin-2-yl)-5-(3,4-dimethoxyphenyl)-1,3,4-oxadiazol-2-amine]", "values": [
      {"measurement": "effect on IRP2 protein (Western blot)", "setting": "IRP2 and GPX4; 786-0 or RCC10 ccRCC cells, 24h, relative to GAPDH", "value": "increases IRP2"},
      {"measurement": "effect on IRP2 and GPX4 protein (Western blot)", "setting": "IRP2 and GPX4; higher concentrations of compound, FIG. 3D", "value": "decrease in IRP2 and GPX4"},
      {"measurement": "Tm of ISCA2 in compound-treated wells", "setting": "ISCA2; 100 μM compound, control wells 55.02±0.2", "value": "56.3±0.02", "unit": "°C"},
      {"measurement": "change in melting temperature of ISCA2 (in words)", "setting": "ISCA2; compound 1 and 26HCL at 200 and 100 μM final concentration respectively", "value": "significant change in melting temperature of ISCA2"},
      {"measurement": "lipid peroxidation (MDA-TBA adducts)", "setting": "786-0 cells", "value": "induce lipid peroxidation to an extent comparable to the ferroptosis inducer RSL3"},
      {"measurement": "effect on transcription of HIF target genes (VEGFA, POU5F1)", "setting": "[1]", "value": "decrease transcription of HIF target genes"}
    ]}
  ]
}
